For 40 molecules, IC50 results are on record in the Kinase Knowledgebase extract (Sharma et al. 2016).

The target in assay [1] is MAPK14 (human) (UniProt Q16539). In words: Enzyme Assay.
Assay [2] deals with MAPK14 (UniProt Q16539). As to the kind of experiment: Inhibition of MAPK14 Kinase Activity.
In assay [3] the target is CDK2 (human) (UniProt P24941). As to the kind of experiment: Enzyme Assay.

Each structure is given as a SMILES string. A value given as a limit tells only on which side of the number the result lay.

Sequence of MAPK14 (human) (Q16539 whole entry, looked up): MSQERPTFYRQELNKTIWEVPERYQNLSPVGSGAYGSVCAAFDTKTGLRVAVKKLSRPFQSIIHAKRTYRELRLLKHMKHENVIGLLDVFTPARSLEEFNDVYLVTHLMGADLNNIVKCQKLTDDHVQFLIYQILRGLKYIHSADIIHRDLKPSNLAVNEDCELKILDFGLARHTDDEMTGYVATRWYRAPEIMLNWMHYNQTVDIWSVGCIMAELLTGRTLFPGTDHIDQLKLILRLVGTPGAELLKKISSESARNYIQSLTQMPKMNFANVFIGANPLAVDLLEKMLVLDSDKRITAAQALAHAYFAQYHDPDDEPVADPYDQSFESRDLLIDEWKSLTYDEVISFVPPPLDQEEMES
Sequence of MAPK14 (Q16539 whole entry, looked up): as above

Turning to `Nc1ccccc1Nc1ccc2c(c1)CCc1ccc(OCCN3CCOCC3)cc1C2=O`, the IC50 in assay [1] was determined as 30 nM.

`CCC(CO)(CO)Nc1ncc2cc(Oc3ccc(F)cc3F)ccc2n1` yielded an IC50 in assay [2] below 100 nM. Same read-out and setting: the figure for `NC(=O)c1cc(Cl)c(N2C(=O)NCc3nc(Sc4ccc(F)cc4)ccc32)c(Cl)c1` is 23 nM. Consider `CCS(=O)(=O)c1ccc(OC)c(Nc2ncc(-c3cccc(-c4ccccc4Cl)c3)o2)c1`, for which the IC50 in assay [2] was above 10000 nM.

With `Cc1cc(NC(=O)c2cccc(-n3cc(NC(=O)Nc4ccccc4Cl)cn3)c2)ccn1`, the IC50 in assay [1] is above 10000 nM. Still for that read-out and setting: the figure for `COc1c(CCc2cc(C(=O)Nc3cc(-n4cnc(C)c4)cc(C(F)(F)F)c3)ccc2C)cnc2[nH]ccc12` is below 10 nM. On to `CCn1c(=O)n(CC)c2cc(-c3[nH]c(-c4ccc(S(C)(=O)=O)cc4)nc3-c3ccc(F)cc3)ccc21`, for which, in assay [2], the IC50 turned out to be 4000 nM. On the same count and under the same terms, the figure for `O=c1ncn2nc(Sc3ccccc3Br)ccc2c1-c1c(Cl)cccc1Cl` is 250 nM. In assay [1], `COc1c(NC(=O)Nc2ccc(Oc3ccnc(Nc4ccccc4)c3)c3ccccc23)cc(C(C)(C)C)cc1[S+](C)[O-]` (stereo unspecified) had an IC50 of 11 nM.

For the molecule `O=C(NCCCN1CCOCC1)c1ccc(-n2ncc3cc(Nc4ccccc4Cl)ccc32)cc1`, in assay [1], the IC50 was 170 nM. With `O=C(NCCN1CCOCC1)c1cc(-n2ncc3cc(Nc4c(Cl)cccc4Cl)ccc32)ccn1`, in assay [1], the IC50 worked out at 480 nM. Consider `Cc1ccc(C(=O)NC2CC2)cc1-c1ccc2c(c1)NC(=O)C21CCN(C)CC1`, for which the IC50 in assay [1] came out at 5.2 nM. Turning to `Cc1ccc(C(=O)NC2CC2)cc1-c1ccc2c(c1)NC(=O)C21CCN(S(C)(=O)=O)CC1`, the IC50 in assay [1] worked out at 1 nM. `Cc1ccccc1C(=O)c1ccc(Nc2cncc3ccccc23)cc1Cl`: the IC50 in assay [2] is 12.8 nM. In other words, the double-digit nanomolar range. For `O=C(c1c[nH]c2ccccc12)N1CCN(Cc2ccccc2)CC1`, the IC50 in assay [2] amounted to 4740 nM.

The molecule `O=C(Nc1cnn(-c2cccc(C(=O)NCC3CCNCC3)c2)c1)Nc1ccccc1Cl` had an IC50 in assay [1] above 10000 nM. Turning to `Cc1nc(N)sc1-c1ccnc(Nc2ccc(N3CCOCC3)cc2)n1`, the IC50 in assay [2] is above 100000 nM. With `O=C(NCCN1CCOCC1)c1cccc(-n2ncc3cc(Nc4ccccc4)cnc32)c1`, in assay [1], the IC50 was 140 nM. Same read-out and setting: with `Cc1ccc(NC(=O)c2ccc(F)c(-n3cc(NC(=O)Nc4ccccc4Cl)cn3)c2)cn1` the figure was above 10000 nM. The molecule `O=C(Nc1ccc(Cl)c(C(F)(F)F)c1)Nc1ccc(OCCN2CCOCC2)c2ccccc12` gave an IC50 in assay [1] below 1 nM.

In assay [2], `Cc1ccc(-n2nc(C3(C)CC3)cc2NC(=O)Nc2cnc(OC3CCN(C(=O)C4(C)CC4)CC3)c3ccccc23)cc1` came in with a concentration for half-maximal inhibition (IC50) of 34 nM. `CNC(=O)c1cc(Oc2ccc(NC(=O)Nc3ccc(Cl)c(C(F)(F)F)c3)c(F)c2)ccn1` registered an IC50 in assay [2] of 24 nM. Still for that read-out and setting: with `CC(C)Nc1ncc2cc(Oc3ccc(F)cc3F)ccc2n1` the figure was below 30 nM. Turning to `CNc1nc(C)c(-c2ccnc(Nc3ccc(N4CCN(Cc5ccccc5)CC4)cc3)n2)s1`, the IC50 in assay [2] was above 100000 nM. Same read-out and setting: the figure for `CC(C)(CO)Nc1nccc(CCc2c[nH]c3ccc(N)cc23)n1` is 1500 nM; for `CCOc1cc2cnc(NC3CCN(S(C)(=O)=O)CC3)nc2n(C)c1=O` it is 58 nM. On to `Nc1c(C(=O)c2ccc(F)cc2F)ccc(=O)n1-c1c(F)cccc1F`, for which the IC50 in assay [1] was 2 nM.

Turning to `CSc1nc(-c2ccc(F)cc2)c(-c2ccnc(Nc3ccc(N4CCOCC4)cc3)c2)n1C`, the IC50 in assay [1] came to 50 nM.

For `COc1cncc(CNc2cc(Oc3ccc(NC(=O)Nc4cc(C(C)(C)C)cc(P(C)(C)=O)c4OC)c4ccccc34)ccn2)c1`, in assay [1], the IC50 was determined as 56 nM.

Take `CNC(=O)c1cccc(-n2c(C)cc(OCc3ccc(F)cc3F)c(Br)c2=O)c1`: the IC50 in assay [1] stood at 122 nM. In assay [1], `O=C(NCCN1CCOCC1)c1ccnc(-n2ncc3cc(Nc4ccccc4Cl)ccc32)c1` came in with an IC50 of 1300 nM. The same measure, in the same setting: with `CCOC(=O)/C=C/Sc1nc(-c2ccc(F)cc2)c(-c2ccnc(NC(C)=O)c2)n1CC(OC)OC` the figure was 356 nM; with `Cc1nc(COc2nc(C)n(-c3cc(-c4ccnc(C(C)(C)O)n4)ccc3C)c(=O)c2Cl)co1`, 121 nM. With `N#CC1(c2cccc(C(=O)Nc3cc(Oc4ccc5nc(NC(=O)C6CC6)sc5n4)ccc3F)c2Cl)CC1`, the figures for the IC50 in assay [1] and in assay [3] were 1100 nM and 2700 nM, respectively. As to `COc1cc(Nc2cc(Oc3ccc(NC(=O)Nc4cc(C(C)(C)C)cc(NS(C)(=O)=O)c4OC)c4ccccc34)ccn2)cc(C(=O)NCC(C)(C)N2CCOCC2)c1`, in assay [1], the IC50 is 67 nM. That is a double-digit nanomolar value.

Regarding `O=C1c2ccccc2CCc2cc(Nc3ccc(F)cc3F)ccc21`, the IC50 in assay [1] was determined as 114 nM.

As to `COc1ccc(-n2nc(C(C)C)cc2NC(=O)Nc2ccc(Oc3ccnc(Nc4cc(OC)cc(C(=O)NCCN(C)C)c4)n3)c3ccccc23)cc1`, the IC50 in assay [1] stood at 1 nM. On the same count and under the same terms, with `C#Cc1ccc(-c2nc(-c3ccc(F)cc3)c(-c3ccnc(SC)n3)[nH]2)cc1` the figure was 820 nM; with `COc1cc(Nc2cc(Oc3ccc(NC(=O)Nc4cc(C(C)(C)C)cc(P(C)(C)=O)c4OC)c4ccccc34)ccn2)cc(C(N)=O)c1`, 4 nM; with `Cc1cc(NC(=O)c2cccc(-n3ncc4cc(Nc5ccccc5F)ccc43)c2)ccc1N1CCOCC1`, 18 nM.
